# Earlier results, collected in patent US20260345654A1, “2,8-DIHYDROXYQUINOLINE GLUCURONIDE DERIVATIVES WITH ENHANCED PROPERTIES FOR USE AS ANTICANCER, ANTIVIRAL, ANTIMICROBIAL, AND OTHER THERAPEUTIC APPLICATIONS” (priority 2023, published 2026).
# What was measured:
# [1] = system: A2780, A549 and MDA-MB-231 cells; conditions: addition of Cu^+2 to the media; cited from earlier work
# [2] = system: viral attachment to ACE receptor; conditions: COVID 19; copper chelation not required; cited from earlier work
# [3] = Japanese population, 1970's; cited from earlier work
# tumor cells = conditions: addition of docosahexaenoic acid (DHA); Ding 2006; cited from earlier work
# cancer cells = conditions: Zhai 2010; Oliveri 2012; cited from earlier work
smiles,measurement,setting,value
"Oc1c(I)cc(Cl)c2cccnc12 [CQ, 5-chloro-7-iodo-8-hydroxyquinoline]",cytotoxicity change with addition of Cu^+2,[1],significantly increased the cytotoxicity
same,antiviral activity mechanism,[2],blocking viral attachment to ACE receptor
same,serious side effect,[3],CQ-associated subacute myelo-optic neuropathy
same,anticancer activity with omega fatty acids,tumor cells,increase synergistically
same,effect of copper on anti-cancer activity,cancer cells,enhancer or prerequisite of the anti-cancer activity
